{"source": "paper PMC7719384", "about": "(Clinical and Translational Science, 2020)", "key": {"[1]": {"assay": "Pharmacokinetics of allopurinol and febuxostat in healthy volunteers", "format": "in vivo, human", "settings": "for variation of AUC0–24 between individual participants / variation of Cmax between individual participants: 300 mg allopurinol or 120 mg febuxostat once daily"}, "[2]": {"tested_on": "BCRP", "settings": "in vitro; cited from earlier work"}, "[3]": {"format": "in vivo, human", "settings": "rosuvastatin 10 mg; for AUC(0-inf) / half-life: plasma; for AUC(0-inf): AUC0–∞; for half-life: t ½"}, "[4]": {"target": "T1, BCRP (Homo sapiens, UniProt Q9UNQ0)", "T1 sequence (Q9UNQ0 1-655)": "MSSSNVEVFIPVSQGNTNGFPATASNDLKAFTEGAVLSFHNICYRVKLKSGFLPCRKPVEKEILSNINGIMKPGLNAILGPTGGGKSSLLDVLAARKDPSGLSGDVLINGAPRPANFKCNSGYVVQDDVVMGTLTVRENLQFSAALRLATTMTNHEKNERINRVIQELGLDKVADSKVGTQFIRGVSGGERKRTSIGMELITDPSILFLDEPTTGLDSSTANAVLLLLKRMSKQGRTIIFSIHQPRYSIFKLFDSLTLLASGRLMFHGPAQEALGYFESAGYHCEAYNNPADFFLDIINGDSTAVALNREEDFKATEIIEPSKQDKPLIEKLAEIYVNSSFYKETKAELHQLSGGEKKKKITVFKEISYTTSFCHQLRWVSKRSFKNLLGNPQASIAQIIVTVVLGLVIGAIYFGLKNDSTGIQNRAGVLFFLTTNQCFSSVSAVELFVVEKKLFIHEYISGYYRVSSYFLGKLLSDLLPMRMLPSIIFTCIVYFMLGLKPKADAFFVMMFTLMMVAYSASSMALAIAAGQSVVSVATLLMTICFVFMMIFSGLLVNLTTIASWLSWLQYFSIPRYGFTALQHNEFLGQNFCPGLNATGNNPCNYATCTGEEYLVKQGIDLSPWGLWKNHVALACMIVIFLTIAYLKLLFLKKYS", "format": "biochemical"}, "[5]": {"tested_on": "OATP1B1", "settings": "in vitro; cited from earlier work"}, "[6]": {"tested_on": "OATP1B3", "settings": "in vitro; cited from earlier work"}, "[7]": {"tested_on": "OATP2B1", "settings": "in vitro; cited from earlier work"}, "[8]": {"settings": "cited from earlier work"}, "[9]": {"tested_on": "CYP1A2", "settings": "in vitro; cited from earlier work"}, "[10]": {"settings": "mice; cited from earlier work"}, "[11]": {"tested_on": "CYP2C19", "settings": "in vitro; cited from earlier work"}, "[12]": {"tested_on": "CYP2D6", "settings": "in vitro; cited from earlier work"}, "[13]": {"tested_on": "CYP3A4", "settings": "in vitro; cited from earlier work"}, "[14]": {"tested_on": "CYP2C9", "settings": "in vitro; cited from earlier work"}, "[15]": {"settings": "in vivo in humans; cited from earlier work"}, "[16]": {"tested_on": "breast cancer resistance protein (BCRP; encoded by ABCG2)", "settings": "in vitro; cited from earlier work"}, "[17]": {"settings": "patients with established cardiovascular disease; cited from earlier work"}, "[18]": {"tested_on": "CYP2C8", "settings": "in vitro; cited from earlier work"}, "[19]": {"settings": "in vivo in humans; cited from earlier work", "remark": "listed apart in the source"}, "[20]": {"settings": "cited from earlier work", "remark": "listed apart in the source"}, "[21]": {"settings": "in vivo in humans; cited from earlier work", "remark": "listed apart in the source"}, "[22]": {"settings": "120 mg febuxostat once daily vs placebo"}, "[23]": {"settings": "human, oral, allopurinol phase (300 mg once daily days 1–7), geometric mean (geometric CV)"}, "[24]": {"settings": "human, oral, febuxostat phase (120 mg once daily days 4–7), geometric mean (geometric CV)"}}, "note": "Where two headings read alike, the source gives them in different places."}
{"smiles": "Oc1ncnc2[nH]ncc12", "note": "[allopurinol]", "values": [{"measurement": "variation of AUC0–24 between individual participants", "setting": "[1]", "value": 4.7, "unit": "fold"}, {"measurement": "variation of Cmax between individual participants", "setting": "[1]", "value": 1.8, "unit": "fold"}, {"measurement": "AUC(0-t)", "setting": "[1]; human, plasma, oral, 300 mg", "value": 5700, "unit": "ng·h/mL"}, {"measurement": "Cmax", "setting": "[1]; human, plasma, oral, 300 mg", "value": 2000, "unit": "ng/mL"}, {"measurement": "inhibition of BCRP", "setting": "[2]", "value": "have not inhibited"}, {"measurement": "effect on the pharmacokinetics of rosuvastatin", "setting": "[3]; 300 mg allopurinol once daily for 7 days vs placebo", "value": "no statistically significant effect"}, {"measurement": "IC50", "setting": "[4]", "value": "> 200000", "unit": "nM"}]}
{"smiles": "CC1=NN(c2ccc(C)c(C)c2)C(=O)/C1=N\\Nc1cccc(-c2cccc(C(=O)O)c2)c1O", "note": "[eltrombopag]", "values": [{"measurement": "inhibition of OATP1B1", "setting": "[5]", "value": "inhibits"}, {"measurement": "inhibition of OATP1B3", "setting": "[6]", "value": "inhibits"}, {"measurement": "inhibition of OATP2B1", "setting": "[7]", "value": "inhibits"}, {"measurement": "increase of rosuvastatin AUC", "setting": "[8]", "value": 1.6, "unit": "fold"}]}
{"smiles": "Cc1nc(-c2ccc(OCC(C)C)c(C#N)c2)sc1C(=O)O", "note": "[febuxostat]", "values": [{"measurement": "inhibition of CYP1A2", "setting": "[9]", "value": "does not inhibit"}, {"measurement": "exposure to the BCRP substrate sulfasalazine", "setting": "[10]", "value": "markedly increase"}, {"measurement": "inhibition of CYP2C19", "setting": "[11]", "value": "does not inhibit"}, {"measurement": "variation of AUC0–24 between individual participants", "setting": "[1]", "value": 3.0, "unit": "fold"}, {"measurement": "variation of Cmax between individual participants", "setting": "[1]", "value": 5.0, "unit": "fold"}, {"measurement": "increase of AUC0–24 in individuals homozygous for SLCO1B1 c.521T>C", "setting": "[1]; compared with the noncarriers and one heterozygote, data not shown, preliminary finding", "value": 1.8, "unit": "fold"}, {"measurement": "AUC(0-t)", "setting": "[1]; human, plasma, oral, 120 mg", "value": 12300, "unit": "ng·h/mL"}, {"measurement": "Cmax", "setting": "[1]; human, plasma, oral, 120 mg", "value": 4300, "unit": "ng/mL"}, {"measurement": "half-life", "setting": "[1]; human, plasma, oral, 120 mg", "value": 6, "unit": "h"}, {"measurement": "inhibition of CYP2D6", "setting": "[12]", "value": "weak inhibitor"}, {"measurement": "inhibition of CYP3A4", "setting": "[13]", "value": "does not inhibit"}, {"measurement": "inhibition of CYP2C9", "setting": "[14]", "value": "does not inhibit"}, {"measurement": "increase of the AUC of desipramine", "setting": "[15]", "value": 12, "unit": "%"}, {"measurement": "effect on Clrenal of rosuvastatin", "setting": "[3]; [22]", "value": "remained unaffected"}, {"measurement": "effect on t ½ of rosuvastatin", "setting": "[3]; [22]", "value": "remained unaffected"}, {"measurement": "IC50", "setting": "[4]", "value": 350, "unit": "nM"}, {"measurement": "inhibition of BCRP mediated transport of urate", "setting": "[16]", "value": "strongly inhibit"}, {"measurement": "all-cause and cardiovascular mortality compared with allopurinol", "setting": "[17]", "value": "increases"}, {"measurement": "inhibition of CYP2C8", "setting": "[18]", "value": "weak inhibitor"}, {"measurement": "effect on the pharmacokinetics of rosiglitazone", "setting": "[19]", "value": "no effect"}]}
{"smiles": "O=c1[nH]c(=O)c2c[nH]nc2[nH]1", "note": "[oxypurinol]", "values": [{"measurement": "inhibition of BCRP", "setting": "[2]", "value": "have not inhibited"}]}
{"smiles": "O=C(O)C[C@H](O)C[C@H](O)/C=C/c1c(C2CC2)nc2ccccc2c1-c1ccc(F)cc1", "note": "[pitavastatin]", "values": [{"measurement": "effect of the ABCG2 c.421C>A variant on AUC", "setting": "[20]", "value": "no significant effect"}]}
{"smiles": "CC[C@H](C)C(=O)O[C@H]1C[C@H](O)C=C2C=C[C@H](C)[C@H](CC[C@@H](O)C[C@@H](O)CC(=O)O)[C@H]21", "note": "[pravastatin]", "values": [{"measurement": "effect of the ABCG2 c.421C>A variant on AUC", "setting": "[20]", "value": "no significant effect"}]}
{"smiles": "CC(C)c1nc(N(C)S(C)(=O)=O)nc(-c2ccc(F)cc2)c1/C=C/[C@@H](O)C[C@@H](O)CC(=O)O", "note": "[rosuvastatin]", "values": [{"measurement": "CL renal", "setting": "[3]; human, plasma and urine, oral, Clrenal, allopurinol phase (300 mg once daily days 1–7), geometric mean (geometric CV)", "value": 225, "unit": "mL/min"}, {"measurement": "AUC(0-inf)", "setting": "[3]; [23]", "value": 53.5, "unit": "ng·h/mL"}, {"measurement": "AUC(0-inf)", "setting": "[3]; [24]", "value": 82.5, "unit": "ng·h/mL"}, {"measurement": "half-life", "setting": "[3]; [23]", "value": 10.9, "unit": "h"}, {"measurement": "half-life", "setting": "[3]; [24]", "value": 6.3, "unit": "h"}, {"measurement": "Ae, amount excreted into urine", "setting": "[3]; allopurinol phase (300 mg once daily days 1–7), geometric mean (geometric CV)", "value": "0.45 (101%) mg"}, {"measurement": "AUC0–∞, allopurinol phase to placebo phase ratio (90% CI)", "setting": "[3]; geometric mean ratio", "value": "1.26 (0.98–1.61); P = 0.13"}, {"measurement": "AUC0–∞, febuxostat phase to placebo phase ratio (90% CI)", "setting": "[3]; geometric mean ratio", "value": "1.93 (1.51–2.48); P = 0.001"}, {"measurement": "Ae, allopurinol phase to placebo phase ratio (90% CI)", "setting": "[3]; geometric mean ratio", "value": "0.99 (0.69–1.43); P = 0.98"}, {"measurement": "Ae, febuxostat phase to placebo phase ratio (90% CI)", "setting": "[3]; geometric mean ratio", "value": "1.76 (1.16–2.66); P = 0.03"}, {"measurement": "Clrenal, allopurinol phase to placebo phase ratio (90% CI)", "setting": "[3]; geometric mean ratio", "value": "0.86 (0.65–1.14); P = 0.36"}, {"measurement": "Clrenal, febuxostat phase to placebo phase ratio (90% CI)", "setting": "[3]; geometric mean ratio", "value": "0.82 (0.58–1.14); P = 0.30"}, {"measurement": "Cmax, allopurinol phase to placebo phase ratio (90% CI)", "setting": "[3]; geometric mean ratio", "value": "1.22 (1.02–1.47); P = 0.08"}, {"measurement": "Cmax, febuxostat phase to placebo phase ratio (90% CI)", "setting": "[3]; geometric mean ratio", "value": "2.13 (1.76–2.58); P = 5 × 10^−5"}, {"measurement": "t ½, allopurinol phase to placebo phase ratio (90% CI)", "setting": "[3]; geometric mean ratio", "value": "1.72 (1.03–2.85); P = 0.08"}, {"measurement": "t ½, febuxostat phase to placebo phase ratio (90% CI)", "setting": "[3]; geometric mean ratio", "value": "1.00 (0.75–1.33); P = 0.99"}, {"measurement": "increase of AUC by homozygosity for SLCO1B1 c.521T>C", "setting": "[21]", "value": "1.7–2.2 fold"}, {"measurement": "increase of Cmax by homozygosity for SLCO1B1 c.521T>C", "setting": "[21]", "value": "1.8–2.7 fold"}]}
{"smiles": "CCC(C)(C)C(=O)O[C@H]1C[C@@H](C)C=C2C=C[C@H](C)[C@H](CC[C@@H](O)C[C@@H](O)CC(=O)O)[C@H]21", "note": "[simvastatin acid]", "values": [{"measurement": "effect of the ABCG2 c.421C>A variant on AUC", "setting": "[20]", "value": "no significant effect"}]}
